Laboratory results reported in patent US12448475B2, “Drug delivery compositions and applications thereof” (The University of North Carolina at Chapel Hill, priority 2019, dated 2025).
Values after ≈ are worked out from the molar mass of the structure shown.

Columns and labels:
[1] = Solubilization of poorly soluble drugs in PMeOx-PcBOx polymeric micelles; conditions: polymer 10 mg/ml
From the text: (§1) (P2). The molecules examined belonged to different classes including transforming growth factor β (TGF-β) receptor inhibitors (LY2109761, GW788388 and LY364947), protein synthesis inhibitors (bruceantin), toll-like receptor (TLR) 7 agonist (imiquimod), phosphatidylinositol 3-kinase (PI3K) inhibitors (wortmannin and pictilisib (GDC-0941)), microtubule inhibitor (paclitaxel), and topoisomerase inhibitors (Aclacinomycin A and SN-38). […] Drugs were screened at various ratios, beginning at 1:10 (drug:polymer), and increased the ratio until maximal solubility was obtained.

physchem = assay: physchem
From the text: as §1

[2] = DLS size distribution of API-loaded micelles, Example 8; format: physicochemical; conditions: PcBOx triblock (PMeOx-PcBOx-PMeOx) micelles
Procedure: (§2) Drug-encapsulated polymeric nanoparticle formulations were prepared by the thin film hydration method. For resiquimod, imiquimod, and RXDX-105, stock solutions of PMeOx-PcBOx-PMeOx and drugs in chloroform:methanol (9:1) solution were mixed together at the pre-determined ratios (8:10 drug to polymer w/w ratio (resiquimod), 2:10 w/w ratio (imiquimod), 4:10 w/w ratio (RXDX-105)). The organic solvent was evaporated at 58° C. under a stream of inert gas to form a thin-film of drug-polymer homogenous mixture. Next, the thin films were hydrated with saline and then incubated for 5-10 min to form drug-encapsulated polymeric micelle solutions. All samples were prepared with 1 mg of polymer and hydrated with 100 uL of saline. The formed micelle solutions were centrifuged at 10,000 rpm for 3 minutes (Sorvall Legend Micro 21R Centrifuge, Thermo Scientific) to remove any precipitate of unloaded drug or polymer. The final concentration of drugs in PMeOx-PcBOx-PMeOx micelles was analyzed by HPLC (Agilent Technologies 1200 series) using a mixture of acetonitrile/water (70%/30% v/v for Resiquimod and imiquimod; 50%/50% v/v for RXDX-105) as the mobile phase. The samples were diluted with mobile phase to final concentration of ˜100 μg/mL of drugs and injected (10 μL) into the HPLC system. The flow rate was 1.0 mL/min, and column temperature was 40° C. Detection wavelength was 254 nm. Drug concentration was quantified against free drug calibration curves. Particle z-average effective diameter and polydispersity index (PDI) were measured by dynamic light scattering (DLS) (Nano-ZS, Malvern Instruments, UK).

[3] = Loading capacity of API-loaded micelles (thin film hydration, HPLC), Example 8; format: physicochemical; conditions: PcBOx triblock (PMeOx-PcBOx-PMeOx) micelles, polymer 10 mg/ml
Procedure: as §2, with “The samples were diluted with mobile phase to final concentration of ˜100 μg/mL of drugs and injected (10 μL) into the HPLC system. The flow rate was 1.0 mL/min, and column temperature was 40° C. Detection wavelength was 254 nm.” left out, “UK). […]” for “UK).”

[4] = DLS size distribution of drug-loaded PMeOx-PcBOx micelle formulations; format: physicochemical; conditions: drug-loaded PMeOx-PcBOx micelle formulation
[5] = Release profile of encapsulated drugs from polymeric micelles; format: physicochemical; conditions: from P2, after 24 hours, 10:1 polymer:drug feeding ratio
Procedure: The release profile of encapsulated drugs (Paclitaxel and Bruceantin) in PMeOx-PcBOx was investigated. Both Paclitaxel and Bruceantin were continuously released from PMeOx-PcBOx nanoparticle, with over 80% of drugs being released at 24 hour time point (FIG. 5C). The release rates were similar for Bruceantin in both of the polymers. […] After 24 hours, most of the PTX was released in PcBOx whereas not even 50% was released from P2. This kind of release data is consistent with previously published data at this low (10:1) polymer:drug feeding ratio. Both paclitaxel and Bruceantin formulation in PMeOx-PcBOx were proven stable for 8 days at 4° C. as the drug loading and size distribution were monitored (FIGS. 5E and 5F).

CS(=O)(=O)N1CCN(Cc2cc3nc(-c4cccc5[nH]ncc45)nc(N4CCOCC4)c3s2)CC1 [GDC-0941, pictilisib]
LC (maximum loading capacity) [1]: 4.3%
solubilization (in words) (physchem): practically insoluble

O=C(NC1CCOCC1)c1ccc(-c2cc(-c3c[nH]nc3-c3ccccn3)ccn2)cc1 [GW788388]
LC (maximum loading capacity) [1]: 0.2%

CC(C)Cn1cnc2c(N)nc3ccccc3c21 [Imiquimod, imiquimod]
LC (maximum loading capacity) [1]: undetectable
Deff [2]: 160 nm
PDI [2]: 0.18
LC (%) [3]: 14.1%
solubilization (in words) (physchem): practically insoluble

c1ccc(-c2[nH]ncc2-c2ccnc3ccccc23)nc1 [LY364947]
LC (maximum loading capacity) [1]: 0.3%

c1ccc(-c2nn3c(c2-c2ccnc4cc(OCCN5CCOCC5)ccc24)CCC3)nc1 [LY2109761]
LC (maximum loading capacity) [1]: 24.7%
LE (loading efficiency) [1]: 82%
maximal solubilized drug concentration [1]: ~3.28 mg/mL
Dv10 [4]: 15.5 nm
Dv50 [4]: 21.5 nm
Dv90 [4]: 34.8 nm
PDI [4]: 0.4
size in DLS measurement [4]: 50 nm
LC (maximum loading capacity) (physchem; P2 micelles, polymer 10 mg/ml): 14.0%
LE (loading efficiency) (physchem; P2 micelles, polymer 10 mg/ml): 78%
maximal solubilized drug concentration (physchem; P2 micelles, polymer 10 mg/ml): 1.5 mg/mL

COc1cc2ncnc(Oc3cccc(NC(=O)Nc4cc(C(C)(C)C(F)(F)F)on4)c3)c2cc1OC [RXDX-105]
Deff [2]: 112 nm
PDI [2]: 0.30
LC (%) [3]: 24.1%

CCc1c2c(nc3ccc(O)cc13)-c1cc3c(c(=O)n1C2)COC(=O)[C@]3(O)CC [SN-38]
LC (maximum loading capacity) [1]: undetectable

CC[C@@]1(O)C[C@H](O[C@H]2C[C@H](N(C)C)[C@H](O[C@H]3C[C@H](O)[C@H](O[C@H]4CCC(=O)[C@H](C)O4)[C@H](C)O3)[C@H](C)O2)c2c(cc3c(c2O)C(=O)c2c(O)cccc2C3=O)[C@H]1C(=O)OC [aclacinomycin A, Aclacinomycin A]
LC (maximum loading capacity) [1]: 6.8%

CC(=O)O[C@H]1C(=O)[C@@]2(C)[C@H]([C@H](OC(=O)c3ccccc3)[C@]3(O)C[C@H](OC(=O)[C@H](O)[C@@H](NC(=O)c4ccccc4)c4ccccc4)C(C)=C1C3(C)C)[C@]1(OC(C)=O)CO[C@@H]1C[C@@H]2O [paclitaxel]
LC (maximum loading capacity) [1]: 6.3%
drug released [5]: < 50%
Dv10 [4]: 23.3 nm
Dv50 [4]: 34.6 nm
Dv90 [4]: 80.9 nm
PDI [4]: 0.298
size in DLS measurement [4]: 85 nm
LC (maximum loading capacity) (physchem; P2 micelles, polymer 10 mg/ml): 41%
LE (loading efficiency) (physchem; P2 micelles, polymer 10 mg/ml): 86%
solubility (physchem; aqueous with cosolvent or surfactant or cyclodextrin): 6890 µg/mL (≈ 8.07 mM)
